Non-standard residues stand in square brackets, D forms with d. Residues, ends and D or L forms follow the SMILES beside them. Groups on a side chain read outwards from the residue. *: point of attachment. X3 = CC(C)CCC[C@@H](C)[C@H]1CCC2C3CC=C4C[C@@H](OC(=O)*)CC[C@]4(C)C3CC[C@@]21C; Benzenesulfonyl(4-OMe) = COc1ccc(S(=O)(=O)*)cc1; Phe(3-F) = N[C@@H](Cc1cccc(F)c1)C(=O)O; Ahx = NCCCCCC(=O)O
Experiments:
Format in all cases: cell-based
[1] = test system: LNCaP (prostate cancer); assay: xCELLigence cell viability / proliferation, LNCaP
Description: Example 9—Cell Based Activity of Cell Permeable Compounds on the xCELLigence Platform
The effects of the compounds shown in FIGS. 14A-14B were tested on cancer cell lines MCF7 (breast cancer) and LNCaP (prostate cancer) using the xCELLigence platform (http://www.roche-applied-science.com/sis/xcelligence/ezhome.html). This method of measuring cell viability via measuring cell index is known in the art.
Different doses of the compounds were tested on MCF7 cells to see if there would be an effect on their cell viability.
The control compound was compared to its partner active compound (UBP037).
xCELLigence Method • Before starting the experiment add 50 μL of medium (RPMI 1640, 10% fetal bovine serum, 100 units/mL penicillin, 100 ug/mL streptomycin, and 2 mmol/L glutamine, all from GIBCO) to each well of 96 well E-plate (Roche) and place the plate in the xCELLigence platform to measure the background. • LNCaP/PNT-1 cells are seeded (LNCaPs 80000 cells/well; PNT1 3000 cells/well) in the plate in complete medium and equilibrated for 60 mins at RT before returning to the xCELLigence platform and incubating at 37° C./5% CO2. • 24 hrs after seeding, remove 100 μL of medium was removed from each well and cells were treated with compounds or DMSO diluted in 100 μL of OptiMEM (GIBCO). • Replace the plate in the xCELLigence platform • Cells growth can then be monitored in real-time by the cell index profile on the xCELLigence readout screen • Cell growth can be expressed as normalized cell index and doubling time/slope calculated using the RTCA software.

[2] = test system: MCF7:GFP-PDCD4^WT; assay: Fluorescence reporter assay for PDCD4 accumulation, wild type
Description: Fluorescence Reporter Assay for PDCD4 Accumulation
This assay uses two stable cell lines expressing PDCD4 fused to a GFP tag.
The two stable cell lines MCF7:GFP-PDCD4^WT and MCF7:GFP-PDCD4^S71A/S76Awere grown in 10 ml DMEM+10% FBS and 1% Pen/Strep supplemented with 2 mg/ml Geneticin at 37° C./5% CO2. These cell lines were nucleofected as described above except for the additional supplementation of all media with 2 mg/ml Geneticin.
Fluorescent Reporter Assay
The cells were fixed by removing the growth media and adding 3.7% Formaldehyde in PBS to the cells. The cells were then incubated at RT for 20 mins and the plates washed 3× in PBS.
DRAQ5 DNA stain was added to the cells in PBS at a concentration of 1:10000 and incubated at RT for 1 hour protecting from light. The plate was washed 3× in PBS and read on the Perkin Elmer OPERA platform using the nuclei counting algorithm F in both the 488 nm channel (GFP) and 640 nm channel (DRAQ5). DMSO was used as a negative control and 10 μM MG132 was used as a positive control. Error bars represent standard deviation from 6 replicates. The data are expressed as percentage activity with DMSO (WT)=0% and 10 μM MG132 (WT)=100% activity.
This confirms that the stabilisation resulting from the compounds is dependent on the βTrCP/PDCD4 interaction and is not due to another mechanism such as a global increase in protein production.

[3] = test system: PDCD4 in MCF7 cells; assay: In-cell western assay for PDCD4 accumulation
Description: In-Cell Western Assay for PDCD4 Accumulation.
To measure this an in-cell western assay was used and the peptidomimetics were delivered to the cells by nucleofection.
MCF7 cells were grown in 10 cm dishes in 10 ml DMEM+10% FBS and 1% Pen/Strep at 37° C./5% CO2. On the day of nucleofection, the dish was washed with 90% confluent MCF7 cells with 5 ml PBS, then 3 ml of Trypsin/EDTA was added and incubated at 37° C./5% CO2 for approximately 5 mins until the cells detached from the plastic. 7 ml of normal growth media was added and the number of cells present was counted using a haemocytometer.
The cells were centrifuged cells at 90 g for 10 mins at RT and the supernatant was removed. 100 μl of Nucleofection Buffer V+ Supplement was added (Lonza Biologics Cat no VCA-1003) per 8×10^5 cells, and the cells were added to peptidomimetics dissolved in <3% DMSO.
The cell/peptidomimetic mix was added to cuvettes supplied for the nucleofector and the sample was nucleofected using the recommended MCF7 programme for high cell viability (i.e. E-014). 500 μl of TPA (12-O-tetradecanoylphorbol-13-acetate)-supplemented growth media (i.e. DMEM/10% FBS/1% Pen-Strep/10 nM TPA) was added to the cuvette and 100 μl of this solution was transferred to a well of a 96 well plate and incubated at 37° C./5% CO2 for 8 hours.
The celled were fixed by removing the growth media, adding 3.7% Formaldehyde in PBS and incubating at RT for 20 mins. The plate was washed three times in PBS. And the cells were permeabilised by washing 5× for 5 mins each in PBS+0.1% Triton X-100.
The cells were blocked by adding 3% BSA in PBS-Tween to the cells and incubating at RT for 1.5 hours. An anti-PDCD4 antibody (Abcam cat no: ab80590) was added at a concentration of 1:1000 in 3% BSA in PBS-T (50 ul/well) and incubated at RT for 2.5 hours. The cells were washed 5× for 5 mins each with PBS-T before the secondary antibody (LiCor Biosciences Donkey Anti-Rabbit IRDye 800CW cat no 926-32213) was added at a concentration of 1:1000, along with the DNA stain DRAQ5 at a concentration of 1:10000, in 3% BSA in PBS-T (50 ul/well) and incubated at RT for 1 hour, protected from light.
The cells were washed cells 5× for 5 mins each with PBS-T and all the liquid was removed from the wells before the plate was read on the LiCor Biosciences Odyssey at 700 nm and 800 nm. The reading was normalised in the 800 nm channel to that in the 700 nm channel. The data are shown in FIG. 12, where DMSO was used as a negative control and 20 μM MG132 was used as a positive control. The data is presented as percentage activity with DMSO=0% and […]=100% activity. Error bars represent standard deviation from 3 replicates.
The compounds shown in FIGS. 14A-14B were synthesised to improve cell permeability. […] FIG. 16 compares the round II compounds (shown in FIGS. 14A-14B) with UBP036 in this assay. […] Inhibition of βTrCP, which is responsible for the degradation of both PDCD4 and β-catenin, causes a concomitant stabilisation and accumulation of levels of these proteins which can be measured by in cell western assay.

With `COc1ccc(S(=O)(=O)N[C@H](CC(=O)O)C(=O)N[C@@H](CCC(=O)O)C(=O)NCC(=O)N[C@@H](Cc2cccc(F)c2)C(=O)N[C@@H](Cc2c[nH]c3ccccc23)C(=O)N[C@@H](CCC(=O)O)C(=O)NCCCCCC(=O)N[C@@H](CCCCNC(=O)CCCCCNC(=O)O[C@H]2CC[C@@]3(C)C(=CCC4C3CC[C@@]3(C)C4CC[C@@H]3[C@H](C)CCCC(C)C)C2)C(N)=O)cc1` (stereo partly shown) [UBP036, 4-(MeO)PhSO2-dEGF(3F)WE-Ahx-K(Ahx-Chol)-NH2] ({Benzenesulfonyl(4-OMe)}-[dD]EG[Phe(3-F)]WE[Ahx]K([Ahx-X3])-NH2) the “cell growth / proliferation, xCELLigence” value [1] was “inhibit the growth”, the “accumulation of GFP-PDCD4, fluorescent reporter assay” value [2] was “GFP-PDCD4 accumulation” and the “accumulation of PDCD4, in cell western” value ([3]; MCF7, treatment with cell permeable compound) was “accumulation of PDCD4”. The cell based activity ([3]; general statement, different delivery vehicles) was “display cell based activity”.

Reference: patent US20190106460A1, “BINDING INHIBITORS OF THE BETA. TRANSDUCIN REPEAT-CONTAINING PROTEIN” (priority 2011, published 2019)
